System: spontaneous hypertensive rats
Conditions: oral dose of 100 mg/kg, dissolved in water, male spontaneous hypertensive rats
Method: (B) Effect on spontaneous hypertensive rats
14 to 17-week-old male spontaneous hypertensive rats with mean arterial blood pressure of about 150 mmHg, weighing 270-326 g, were used. The animals were cannulated in the left femoral artery and the mean blood pressure and heart rate were measured with a pressure-transducer. The drugs were given orally. The animals were deprived of food for about 18 hours before oral dosing. The test drugs were dissolved in water, and given in oral dose of 100 mg/kg.

Compound: CCCCc1nc2cccnc2n1Cc1ccc(-c2ccccc2-c2nnn[n-]2)cc1.[Na+] [compound ①, Sodium salt of 2-butyl-3-[[2′-(1H-tetrazol-5-yl)biphenyl-4-yl]methyl]-3H-imidazo[4,5-b]pyridine]
- Effect Max (mean ratio of maximum decrease of blood pressure): 17.6%
